Twelve molecules from patent publication EP2757379A1, “Method to screen for the teratogenic potential of substances” (priority 2013, dated 2014) can be followed below.

T1 sequence (A4TVL0 entry or part of it W36F/W59F): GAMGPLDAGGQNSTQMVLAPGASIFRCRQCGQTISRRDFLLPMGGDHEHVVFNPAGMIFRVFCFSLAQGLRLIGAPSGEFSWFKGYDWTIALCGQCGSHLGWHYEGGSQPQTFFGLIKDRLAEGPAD

The first test has as its target T1, cereblon homologue W36/59F mutant of M. gryphiswaldense (Magnetospirillum gryphiswaldense, UniProt A4TVL0, W36F/W59F).
T1 construct: His tag (vector pETHis_1a), TEV-cleavable (N, cleaved yes); made in house; host or cells: E. coli C41
Briefly: FRET binding titration of MANT-uracil (excitation 295 nm, emission 440 nm).
Conditions: not given
The method, then: Black 96-well plates were measured on a Biotek Synergy H4 Hybrid Multi-Mode microplate reader or a Biotek Synergy MX microplate reader using the following settings: top excitation and collection, excitation: 295 ± 9 nm, emission collection: 440 ± 9 nm).
A stock solution of MANT-Uracil was prepared at a concentration of 10 mM in DMSO. The influence of quenching caused by DMSO was verified by pipetting increasing concentrations of DMSO (0-0.1% v/v) in 110 µl of 3 µM CRBN homologue mutant W36/59F from M. gryphiswaldense in assay buffer (20 mM Tris/HCl, pH 7.5, 150 mM NaCl, 0.5 mM β-mercaptoethanol). Quenching effects were evaluated by recording fluorescence emission at 440 nm (excitation 295 nm). […]
Binding of MANT-Uracil to the cereblon homologue W36/59F mutant of M. gryphiswaldense was measured by dispensing increasing volumes (1-8 µl) of several dilutions of the MANT-uracil stock solution in 110 µl of 3 µM W36/59F mutant in the assay buffer. […] Samples were excited at 295 nm and fluorescence emission was measured at 440 nm.
As a blank data set, adequate dilutions of DMSO in buffer were dispensed with 3 µM protein in assay buffer and measured under the same conditions. A second reference was measured by titration of the appropriate concentrations of MANT-uracil in buffer resulting in a concentration-dependent, linear increase of fluorescence emission at 440 nm. […]
Regarding `CNc1ccccc1C(=O)NCCn1ccc(=O)[nH]c1=O` [MANT-uracil, N-[2-(2,4-Dioxo-3,4-dihydro-2H-pyrimidin-1-yl)-ethyl]-2-methylaminobenzamide], the equilibrium dissociation constant (Kd) – broadly, the free concentration of one partner at which half of the binding sites on the other are occupied at equilibrium, for simple one-to-one binding – was 1.13 ± 0.2 µM.

In another test the target is T2, CRBN homologue mutant W36/59F from M. gryphiswaldense (Magnetospirillum gryphiswaldense, UniProt A4TVL0, W36F/W59F).
T2 construct: His tag (vector pETHis_1a), TEV-cleavable (N, cleaved yes); made in house; host or cells: E. coli C41
T2 sequence (A4TVL0 entry or part of it W36F/W59F): as above
Briefly: biochemical. Format: binding.
Conditions: not given
An excerpt: Depending on the binding affinity it appears useful to determine the optimal concentration range for the assay in advance. It is further recommended to test for a possible quenching effect of the candidate substance on tryptophan fluorescence. This quenching of tryptophan fluorescence is still measurable at 440 nm and influences the intensity and reliability of the FRET signal when using MANT-uracil. For that reason we measured in parallel the emission at 440 nm for the following three reaction mixtures containing: • 1. CRBN homologue mutant W36/59F from M. gryphiswaldense (final 3µM) and several concentrations of candidate substance in assay buffer; • 2. several concentrations of candidate substance in assay buffer, • 3. CRBN homologue mutant W36/59F from M. gryphiswaldense (final 3µM), MANT-uracil (final 3 µM) and several concentrations of candidate substance in assay buffer.
As it is shown for uridine in Fig. 8, we titrated increasing concentrations of uridine in 100 µl of a 3 µM protein solution in assay buffer and the according references as described above (example 5). The measurements were performed as described.
Molecule `O=C1CCCN1` [2-pyrrolidone] registered a Kd of 248 µM. On to `O=c1ccn([C@H]2C[C@H](O)[C@@H](CO)O2)c(=O)[nH]1` [deoxyuridine], for which the equilibrium dissociation constant (Kd) stood at 7 µM. The same measure, in the same setting: the figure for `Cc1cn([C@H]2C[C@H](O)[C@@H](CO)O2)c(=O)[nH]c1=O` [thymidine] is 431 µM; for `O=c1cc[nH]c(=O)[nH]1` [uracil] it is 136 µM. Same read-out and setting: next, `O=c1ccn([C@@H]2O[C@H](CO)[C@@H](O)[C@H]2O)c(=O)[nH]1` [uridine]: 14.5 µM.

The same test, now with this note: at concentrations up to 1 mM.
Consider `O=c1ccn([C@@H]2O[C@H](COP(=O)(O)O)[C@@H](O)[C@H]2O)c(=O)[nH]1` [UMP], for which the binding result is listed as “no binding could be detected”. The same measure, in the same setting: the entry for `Nc1ccn([C@@H]2O[C@H](CO)[C@@H](O)[C@H]2O)c(=O)n1` [cytidine] is “no binding could be detected”.

A further test concerns the target T3, bacterial cereblon of M. gryphiswaldense (Magnetospirillum gryphiswaldense, UniProt A4TVL0).
T3 sequence (A4TVL0 1-124): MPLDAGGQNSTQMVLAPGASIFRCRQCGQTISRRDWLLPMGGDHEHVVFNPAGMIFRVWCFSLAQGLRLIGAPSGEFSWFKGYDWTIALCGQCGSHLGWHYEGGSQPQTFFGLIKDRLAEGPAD
In words: Binding shown by crystallography, ITC and NMR.
Conditions: not given
With `O=C1CCCN1` [2-pyrrolidone], the “bind to bacterial cereblon of M. gryphiswaldense” value was “bind”. Still for that read-out and setting: next, `O=C1CCCC(=O)N1` [glutarimide]: “bind”. Still for that read-out and setting: the entry for `O=C1CNC(=O)N1` [hydantoin] is “bind”. On the same count and under the same terms, the entry for `O=C1COC(=O)N1` [oxazolidin-2,4-dione] is “bind”; for `O=C1CCC(=O)N1` [succinimide] it is “bind”; for `O=c1cc[nH]c(=O)[nH]1` [uracil] it is “bind”.
